# From US8304422B2, “Compositions and methods for inhibition of the JAK pathway” (Rigel Pharmaceuticals, Inc., priority 2007, dated 2012)
# Test system: BaF3 V617F cells; UKE-1
# Assay: Proliferation Assay (Cell Titer-Glo; Example 7)
# Type: cell-based
# Details: proliferation 72 hours, inhibit JAK2 activity, cell line (BaF3 V617F or UKE-1) not stated
# Summary of the method: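 BaF3 V617F cells (RPMI, 10% FBS) and UKE-1 cells (Iscove's DMEM, 10% FBS, 10% equine serum, 1 uM hydrocortisone) were exposed to 3-fold serially diluted compound in duplicate for 72 hours at 37 °C. Viable cell number quantified by Cell Titer-Glo luminescence; IC50 reported.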
row,SMILES,IC50 [nM]
1,"Cc1cc(CNS(=O)(=O)NC2CC2)ccc1Nc1nc(Nc2ccc(N3CCN(C)CC3)c(C)c2)ncc1Cl [II-181, 5-Chloro-N4-[2-methyl-4-((N-cyclopropylamino)sulfonylamino)methylphenyl]-N2-[3-methyl-4-(4-methyl-1-piperazinyl)phenyl]-2,4-pyrimidinediamine]",4330
2,"Cc1cc(CNS(=O)(=O)NC2CC2)ccc1Nc1nc(Nc2ccc(N3CCN(C)CC3)nc2)ncc1Cl [II-182, 5-Chloro-N4-[2-methyl-4-((N-cyclopropylamino)sulfonylamino)methylphenyl]-N2-[6-(4-methyl-1-piperazinyl)-3-pyridinyl]-2,4-pyrimidinediamine]",711
3,"Cc1cc(Nc2ncc(C)c(Nc3ccc(CNS(=O)(=O)C4CC4)cc3)n2)ccc1N1C[C@@H]2C[C@H]1CN2C [II-184, N4-[4-(N-Cyclopropylsulfonylamino)methylphenyl]-5-methyl-N2-[3-methyl-4-[(1S,4S)-5-methyl-2,5-diazabicyclo[2.2.1]hept-2-yl]phenyl]-2,4-pyrimidinediamine]",892
4,"COc1cc(Nc2ncc(Cl)c(Nc3ccc(CNS(=O)(=O)C4CC4)cc3)n2)cc(OC)c1OC [II-186, 5-Chloro-N4-[4-(N-cyclopropylsulfonylaminomethyl)phenyl]-N2-[3,4,5-trimethoxyphenyl]-2,4-pyrimidinediamine]",128
5,"CN1CCC(c2ccc(Nc3ncc(Cl)c(Nc4ccc(CNS(=O)(=O)C5CC5)cc4)n3)cc2)CC1 [II-187, 5-Chloro-N4-[4-(N-cyclopropylsulfonylaminomethyl)phenyl]-N2-[4-(N-methylpiperidin-4-yl)phenyl]-2,4-pyrimidinediamine]",293
6,"COc1cc(Nc2ncc(Cl)c(Nc3cccc(CNS(=O)(=O)C4CC4)c3)n2)cc(OC)c1OC [II-189, 5-Chloro-N4-[3-(N-cyclopropylsulfonylamino)methylphenyl]-N2-[3,4,5-trimethoxyphenyl]-2,4-pyrimidinediamine]",546
7,"CN1CCC(c2ccc(Nc3ncc(Cl)c(Nc4cccc(CNS(=O)(=O)C5CC5)c4)n3)cc2)CC1 [II-190, 5-Chloro-N4-[3-(N-cyclopropylsulfonylaminomethyl)phenyl]-N2-[4-(N-methylpiperidin-4-yl)phenyl]-2,4-pyrimidinediamine]",701
8,"COc1c(C)cc(Nc2ncc(Cl)c(Nc3cccc(CNS(=O)(=O)C4CC4)c3)n2)cc1C [II-192, 5-Chloro-N4-[3-(N-cyclopropylsulfonylamino)methylphenyl]-N2-[3,5-dimethyl-4-methoxyphenyl]-2,4-pyrimidinediamine]",378
9,"O=S(=O)(NCc1ccc(Nc2nc(Nc3ccc(-c4cccnc4)cc3)ncc2Cl)cc1)C1CC1 [II-193, 5-Chloro-N4-[4-(N-cyclopropylsulfonylamino)methylphenyl]-N2-[4-(3-pyridinyl)phenyl]-2,4-pyrimidinediamine]",1300
10,"O=S(=O)(NCc1cccc(Nc2nc(Nc3ccc(-c4cccnc4)cc3)ncc2Cl)c1)C1CC1 [II-194, 5-Chloro-N4-[3-(N-cyclopropylsulfonylamino)methylphenyl]-N2-[4-(3-pyridinyl)phenyl]-2,4-pyrimidinediamine]",1340
11,"COc1cc(Nc2ncc(F)c(Nc3ccc(CNS(=O)(=O)C4CC4)cc3)n2)cc(C)c1OC [II-195, 5-Fluoro-N4-[4-(N-cyclopropylsulfonylamino)methylphenyl]-N2-[3,4-dimethoxy-5-methylphenyl]-2,4-pyrimidinediamine]",180
12,"COc1cc(Nc2ncc(F)c(Nc3ccc(CNS(=O)(=O)C4CC4)cc3)n2)cc(Cl)c1OC [II-196, 5-Fluoro-N4-[4-(N-cyclopropylsulfonylamino)methylphenyl]-N2-[3,4-dimethoxy-5-chlorophenyl]-2,4-pyrimidinediamine]",597
13,"COc1cc(Nc2ncc(C)c(Nc3ccc(CNS(=O)(=O)C4CC4)cc3)n2)cc(C)c1OC [II-197, 5-Methyl-N4-[4-(N-cyclopropylsulfonylamino)methylphenyl]-N2-[3,4-dimethoxy-5-methylphenyl]-2,4-pyrimidinediamine]",92
14,"COc1cc(Nc2ncc(C)c(Nc3ccc(CNS(=O)(=O)C4CC4)cc3)n2)cc(Cl)c1OC [II-198, 5-Methyl-N4-[4-(N-cyclopropylsulfonylamino)methylphenyl]-N2-[3,4-dimethoxy-5-chlorophenyl]-2,4-pyrimidinediamine]",116
15,"COc1cc(Nc2ncc(Cl)c(Nc3ccc(CNS(=O)(=O)C4CC4)cc3)n2)cc(C)c1OC [II-199, 5-Chloro-N4-[4-(N-cyclopropylsulfonylamino)methylphenyl]-N2-[3,4-dimethoxy-5-methylphenyl]-2,4-pyrimidinediamine]",57.2
16,"COc1cc(Nc2ncc(Cl)c(Nc3ccc(CNS(=O)(=O)C4CC4)cc3)n2)cc(Cl)c1OC [II-200, 5-Chloro-N4-[4-(N-cyclopropylsulfonylamino)methylphenyl]-N2-[3,4-dimethoxy-5-chlorophenyl]-2,4-pyrimidinediamine]",276
17,"COc1c(C)cc(Nc2ncc(C)c(Nc3ccc(CNS(=O)(=O)C4CC4)cc3)n2)cc1C [II-201, 5-Methyl-N4-[4-(N-cyclopropylsulfonylamino)methylphenyl]-N2-[3,5-dimethyl-4-methoxyphenyl]-2,4-pyrimidinediamine]",174

row,SMILES,IC50 [nM]
1,"Cc1cc(Nc2ncc(C)c(Nc3ccc(CNS(=O)(=O)C4CC4)cc3)n2)ccc1N1CCN(C)CC1 [II-202, 5-Methyl-N4-[4-(N-cyclopropylsulfonylamino)methylphenyl]-N2-[3-methyl-4-(N-methylpiperizin-4-yl)phenyl]-2,4-pyrimidinediamine]",1440
2,"CCN1CCN(c2ccc(Nc3ncc(C)c(Nc4ccc(CNS(=O)(=O)C5CC5)cc4)n3)cc2)CC1 [II-204, 5-Methyl-N4-[4-(N-cyclopropylsulfonylamino)methylphenyl]-N2-[4-(N-ethylpiperizin-4-yl)phenyl]-2,4-pyrimidinediamine]",175
3,Cc1cnc(Nc2ccc(N3CCN(S(C)(=O)=O)CC3)cc2)nc1Nc1ccc(CNS(=O)(=O)C2CC2)cc1 [II-206],1560
4,"CCOc1cc(Nc2ncc(C)c(Nc3ccc(CNS(=O)(=O)C4CC4)cc3)n2)cc(OC)c1OC [II-209, 5-Methyl-N4-[4-(N-cyclopropylsulfonylamino)methylphenyl]-N2-[3,4-dimethoxy-5-ethoxyphenyl]-2,4-pyrimidinediamine]",317
5,"CCOc1cc(Nc2ncc(Cl)c(Nc3ccc(CNS(=O)(=O)C4CC4)cc3)n2)cc(OC)c1OC [II-210, 5-Chloro-N4-[4-(N-cyclopropylsulfonylamino)methylphenyl]-N2-[3,4-dimethoxy-5-ethoxyphenyl]-2,4-pyrimidinediamine]",167
6,"CCOc1c(C)cc(Nc2ncc(Cl)c(Nc3ccc(CNS(=O)(=O)C4CC4)cc3)n2)cc1C [II-211, 5-Chloro-N4-[4-(N-cyclopropylsulfonylamino)methylphenyl]-N2-[3,5-dimethyl-4-ethoxyphenyl]-2,4-pyrimidinediamine]",39.4
7,"CCOc1c(C)cc(Nc2ncc(C)c(Nc3ccc(CNS(=O)(=O)C4CC4)cc3)n2)cc1C [II-214, 5-Methyl-N4-[4-(N-cyclopropylsulfonylamino)methylphenyl]-N2-[3,5-dimethyl-4-ethoxyphenyl]-2,4-pyrimidinediamine]",55.6
8,"Cc1cnc(Nc2cnccc2N2CCN(C)CC2)nc1Nc1ccc(CNS(=O)(=O)C2CC2)cc1 [II-215, 5-Methyl-N4-[4-(N-cyclopropylsulfonylamino)methylphenyl]-N2-[4-(N-methylpiperizin-4-yl)pyridine-3-yl]-2,4-pyrimidinediamine]",1520
9,"CN1CCN(c2ccncc2Nc2ncc(Cl)c(Nc3ccc(CNS(=O)(=O)C4CC4)cc3)n2)CC1 [II-216, 5-Chloro-N4-[4-(N-cyclopropylsulfonylamino)methylphenyl]-N2-[4-(N-methylpiperizin-4-yl)pyridine-3-yl]-2,4-pyrimidinediamine]",246
10,"Cc1cnc(Nc2cc(C)c(OC(C)C)c(C)c2)nc1Nc1ccc(CNS(=O)(=O)C2CC2)cc1 [II-219, 5-Methyl-N4-[4-(N-cyclopropylsulfonylamino)methylphenyl]-N2-[3,5-dimethyl-4-(2-propoxy)phenyl]-2,4-pyrimidinediamine]",114
11,"Cc1cc(Nc2ncc(Cl)c(Nc3ccc(CNS(=O)(=O)C4CC4)cc3)n2)cc(C)c1OC(C)C [II-220, 5-Chloro-N4-[4-(N-cyclopropylsulfonylamino)methylphenyl]-N2-[3,5-dimethyl-4-(2-propoxy)phenyl]-2,4-pyrimidinediamine]",121
12,"CCCOc1c(C)cc(Nc2ncc(Cl)c(Nc3ccc(CNS(=O)(=O)C4CC4)cc3)n2)cc1C [II-221, 5-Chloro-N4-[4-(N-cyclopropylsulfonylamino)methylphenyl]-N2-[3,5-dimethyl-4-(1-propoxy)phenyl]-2,4-pyrimidinediamine]",238
13,"O=S(=O)(NCc1ccc(Nc2nc(Nc3ccc(CN4CCOCC4)cc3)ncc2Cl)cc1)C1CC1 [II-223, 5-Chloro-N4-[4-(N-cyclopropylsulfonylamino)methylphenyl]-N2-[4-(1-morpholinomethyl)phenyl]-2,4-pyrimidinediamine]",733
14,"Cc1cnc(Nc2cncc(C)c2N2CCN(C)CC2)nc1Nc1ccc(CNS(=O)(=O)C2CC2)cc1 [II-224, 5-Methyl-N4-[4-(N-cyclopropylsulfonylamino)methylphenyl]-N2-[5-methyl-4-(N-methylpiperizin-4-yl)pyridin-3-yl]-2,4-pyrimidinediamine]",848
15,"Cc1nc2cc(Nc3ncc(Cl)c(Nc4cccc(CNS(=O)(=O)C5CC5)c4)n3)ccc2[nH]1 [III-7, 5-Chloro-N4-[3-(N-cyclopropylsulfonylaminomethyl)phenyl]-N2-[2-methylbenzamidazol-5-yl]-2,4-pyrimidinediamine]",644
16,COc1cc(Nc2ncc(C)c(Nc3ccc4c(c3)[C@H](NS(C)(=O)=O)CC4)n2)cc(OC)c1OC [V-9],2200
17,COc1c(C)cc(Nc2ncc(C)c(Nc3ccc4c(c3)[C@H](NS(C)(=O)=O)CC4)n2)cc1C [V-10],673
